The nature of data set [1]: pKa by spectrophotometric titration. To be noted: water, 1.0 m kcl. The class given is physicochemical. As to the method:
pKa constants were determined by spectrophotometric titration in μ=1.0 (KCl) aerobic aqueous solvent at 30°±0.2° C. with a Cary 15 outfitted with a titration cell. Acid dissociations from hydroquinones in strong base were measured under an argon atmosphere with Thunberg cuvettes. Details of the methodoloqy employed are found in a previous publication.

Data set [2] in a line: Two-electron reduction potentials by cyclic voltammetry and Nernst fit.
Experimental: Quinone 1a and iminoquinone 2a two-electron reduction potentials were determined in anaerobic aqueous buffers (μ=1, NaClO4) at 25° C. over the pH range -1 to 10 employing conventional cyclic voltammetry. The working electrode was a graphite mull, the auxillary electrode was platinum, and the reference couple was Ag/AgCl.
The pKa values, with error limits, were determined. spectrophotometrically.
The determination of Em values was carried out with a BAS 27 voltammograph. Measurements were carried out in μ=1.0 (NaClO4) aqueous buffer at 25°-26° C. under an atmosphere of argon with a BAS Ag/AgCl gel electrode as reference. […] The midpoint potential Em was determined from the average of the anodic (Ep,a) and cathodic (Ep,c) potentials.
For each of the redox couples, 1a/20 and 2a/19, >20 Em determinations were made over the pH range studied. For each Em value of a couple, and Eo value was calculated from the Nernst equation substituted with the acid dissociation constants in Table I and the proton activity determined with a pH meter. The average of all Eo determinations was then substituted into the Nernst equation, with which the solid curve for the couple was generated.
Data set [3] can be described thus: Aerobic oxidation (oxygen reactivity) of reduced species in aqueous buffer. The class given is physicochemical. The method, then: The oxygen reactivity of 19 and 20 was studied in aerobic buffers (μ=1.0, KCl) at 30° C. Both of these species are converted to the corresponding oxidized analogues, 2a and 1a, by first-order processes. Isolation studies and UV-visible spectra of completed reactions confirmed the formation of both analogues. As expected from the relative reduction potentials, the oxidation of 19 is slow enough to be studied up to pH=11 whereas the oxidation of 20 occurs at stopped-flow rates much above neutrality.
The profile for the oxidation of 19 is consistent with oxidation of both the neutral species (19) and the monoprotonated species (19H^+), see Scheme 5, below. [drawing 11] The rate law for the mechanism in Scheme 5 is found in Equation 5. […] The solid curve of Plot B in FIG. 3 was computer generated with equation 5 using the values of the constants shown in Scheme 5. Consistent with the proposed mechanism, the kinetically-determined value of Ka is nearly the same as the value determined spectrophotometrically (9.44, entry 11 of Table I). The greater oxygen reactivity of 19, compared to 19H^+, is consistent with the decreasing Em values (i.e., decreasing stability of the reduced species) observed in the Nernst Fit (Plot B, FIG. 2) at pH values>6.
(§1) Kinetic Studies of Hydrolysis. The hydrolytic studies of 2a and the reoxidation studies of 19 and 20 were carried out in aerobic aqueous buffer at 30.0°±0.2° C. A dimethyl sulfoxide stock of the compound to be studied was prepared fresh and 50 μl of this stock was added to 2.95 mL of buffer. In the cases of 19 and 20, the dimethyl sulfoxide stock was kept under a blanket of argon. The absorbance vs time data were obtained on a Perkin-Elmer 559 or a Lambda-3 UV-vis spectrophotometer and fit to a first-order rate law.

The conditions of data set [4]: comparison or calibration value; cited from earlier work.
Data set [5] in a line: syn/anti isomerization equilibrium (product study, thermodynamic cycles, NMR). To be noted: for K for syn/anti isomerization: aqueous buffer. The class given is physicochemical. As to the method:
Below pH 7, the preparative reaction of pure syn 2a afforded a mixture of isomers; [syn 2a]/[anti 2a]=0.7 by ^1 H NMR. [drawing 5]
The K value (~1) for syn/anti isomerization of 2a in aqueous buffer was assessed from […] thermodynamic cycles and from a product study. The results of the product study indicate K=0.7. The two thermodynamic cycles shown in Scheme 4 indicate K=1 to 2. These thermodynamic cycles were constructed by considering that protonation of syn/anti 2a provides the same cationic species 2aH^+ and that acid dissociation from syn/anti 2a probably provides the same anionic species 2aH^-.
The thermoneutral syn/anti isomerization in aqueous buffer requires that the imino proton of anti 2a hydrogen bond to the nitrogen of the enolized acetamido group.
Product Isolation of syn 2a Reaction at pH 8. To a solution of 15 mg (0.058 mmol) of syn 2a in 1 mL of dimethyl sulfoxide was added 4 mL of pH 8 phosphate buffer. The reaction mixture was stirred at room temperature for 48 hours and then diluted with 10 mL of water and extracted 3× with 20 mL portions of chloroform. Concentration of the dried extracts (sodium sulfate) afforded 12 mg (80%) of a mixture of isomers: [syn/anti]=0.7 by ^1 H NMR.

A short description of data set [6]: Kinetics of hydrolysis and syn/anti isomerization in aqueous buffer. The class given is physicochemical. To be noted: for pKa: aqueous buffer.
Text: Iminoquinone Fate in Aqueous Buffers. […] Outlined in Scheme 4 below, are the pertinent equilibria and hydrolytic reactions of 2a in aqueous buffer. Above pH 7, the predominate reaction is equilibrium formation of a syn/anti mixture of 2a by general acid/base catalyzed processes. Much below pH 7, the predominate reaction is acid-catalyzed hydrolysis of 2a to the corresponding quinone 1a.
The studies which led to the mechanism outlined in Scheme 4 will now be described. Both hydrolysis and the equilibrium isomerization of pure syn 2a or pure anti 2a are associated with an absorbance change at 320 nm. Plots of absorbance vs time obeyed a first-order rate law over the entire pH range studied. The kobsd values were dependent on the concentration of the buffers employed to hold pH over the range of pH=3 to 9. Lyate-dependent values of kobsd (klyate) were obtained by measuring kobsd values over a 10-fold range of buffer concentration at constant pH and then extrapolating to the klyate value at zero buffer concentration.
The rate law for the reaction of pure syn 2a, based on the mechanism shown in Scheme 4 below, is provided in Equation 1: [formula] wherein: k1, k-1, k2, k3, Ka4 and Ka5 are constants found in Scheme 4 and aH is the proton activity determined with a pH electrode. The first term of equation 1 pertains to the hydrolysis of 2aH^2+ under the conditions aH <Ka5, the second term pertains to hydrolysis of 2aH and third term pertains to the syn/anti equilibration. […] Consistent with the postulated mechanism, the kinetically-obtained value of pKa4 approximates the value obtained by spectrophotometric titration (2.6±0.3).
as §1

The test system of data set [7] is cloned human colon cancer cell lines. The data set can be described thus: Antitumor activity in cloned human colon cancer cell lines. The class given is cell-based.
A further data set deals with fresh human colon tumors. The data set can be described thus: Antitumor activity in fresh human colon tumors. The class given is cell-based.
The subject of data set [8] is cloned human ovarian cancer cell lines. The data set can be described thus: Antitumor activity in cloned human ovarian cancer cell lines. The class given is cell-based.
For data set [9], the system named is fresh human ovarian tumors. The data set can be described thus: Antitumor activity in fresh human ovarian tumors. The class given is cell-based.
[10] abbreviates: N(4)-protonated species, 30° C., μ = 1.0 (KCl).
Setting [11] is: amide proton, 30° C., μ = 1.0 (KCl).
Where [12] appears, read: buffer-catalyzed syn/anti isomerization.

“Also recorded” adds a separate entry of the source. A value given as a limit tells only on which side of the number the result lay.

Regarding `CC(=O)Nc1c(C)c(O)c2c(nc3n2CCC3)c1N` [compound 19, 6-Acetamido-5-amino-8-hydroxy-7-methyl-2,3-dihydro-1H-pyrrolo[1,2-a]benzimidazole], the pKa in [1] (setting [10]) is 3.67 ± 0.16; in data set [1] (dissociation of hydroxyl, amide and amine protons: 19^2- to 19^3-, approximated), above 15; in data set [1] (dissociation of hydroxyl, amide and amine protons: 19^- to 19^2-, approximated) it was above 15; in data set [1] (dissociation of hydroxyl, amide and amine protons: 19 to 19^-, approximated), above 15; in [1] (protonated 5-amino group (19H^+), 30° C., μ = 1.0 (KCl)), 9.44. Besides, the “stability of reduced species in acid” value in [2] (acid solution) is “acid-stable”. For the same compound, in data set [3] (physiological pH), the “reoxidation rate relative to 20” value is on record as “two orders of magnitude slower”. Besides, the “fold slower oxidation than 20” value in data set [3] (physiological pH (7.4)) is reported as “about 100 ×”.
Turning to `N#CC1=C(C#N)C(=O)C(Cl)=C(Cl)C1=O` [dichlorodicyanoquinone (DDQ), dichlorodicyanoquinone], the Eo in [4] is 946 mV, NHE.
Regarding `CC(=O)Nc1c(C)c(O)c2c(nc3n2CCC3)c1O` [compound 20], the pKa was 11.1 in data set [1] (5-OH of hydroquinone, 30° C., μ = 1.0 (KCl)); above 14 in data set [1] (8-OH of hydroquinone (20^- to 20^2-), 30° C., μ = 1.0 (KCl), approximated); 6.02 ± 0.2 in data set [1] (setting [10]); above 14 in data set [1] (setting [11]). Moreover, the “oxidation rate above pH 7.5” value in data set [3] (above pH 7.5) was “too fast to measure”. In addition, in data set [3] (assuming rate-determining oxidation of 20^-), the “oxidation rate of 20^-” value was 1566 s⁻¹.
For `CC(=O)NC1=C(C)C(=O)c2c(nc3n2CCC3)C1=N` [syn 2a, 6-Acetamido-5-imino-7-methyl-2,3-dihydro-1H-pyrrolo[1,2-a]benzimidazol-8-one], in data set [5] (dimethyl sulfoxide-d6), the “K for syn/anti equilibration” value came out at 15. In data set [5] (preparative reaction of pure syn 2a, ^1 H NMR, pH 8 phosphate buffer, 48 hours), the “[syn]/[anti] ratio” value is 0.7. The “completed hydrolysis, product by UV-visible spectra” value in data set [6] (pH 0 to pH 6) is listed as “quantitative formation of 1a”.
Regarding `CC(=O)NC1=C(C)C(=O)c2c(nc3n2CCC3)C1=O` [1a, 6-Acetamido-7-methyl-2,3-dihydro-1H-pyrrolo [1,2-a]benzimidazole-5,8-dione], the pKa is 1.54 ± 0.06 in data set [1] (setting [10]) and 11.3 ± 0.13 in [1] (setting [11]). The “Eo (reduction potential at pH=0)” value in data set [2] (couple 1a/20, Nernst fit) is reported as 612 mV (NHE). Besides, in [6] (aqueous solution, pH range -1 to 10), the “hydrolytic stability, entire pH range studied” value is recorded as “hydrolytically stable”.
Turning to `CC(=O)NC1=C(C)C(=O)c2c(nc3n2CCC3)C1=N` [2a, syn/anti 6-Acetamido-5-imino-7-methyl-2,3-dihydro-1H-pyrrolo[1,2-a]benzimidazol-8-one], the pKa in data set [1] (setting [10]) is below 0; in data set [1] (setting [11]), 11.24 ± 0.01; in data set [1] (protonated imino group (2aH^+), spectrophotometric, 30° C., μ = 1.0 (KCl)), 2.6 ± 0.3; in data set [6] (acid dissociation of 2aH^+ (protonated imine), pH profile FIG. 1, read-out: pKa), around 2.5; in data set [6] (acid dissociation of diprotonated 2a, pH profile FIG. 1, read-out: pKa) it was below 0; in data set [6] (kinetically obtained, fit of equation 1, 30° C., read-out: pKa4), 3.4. Further, the “Eo (reduction potential at pH=0)” value in data set [2] (couple 2a/19, Nernst fit) is given as 1.11 V (NHE). Further, the “E values of syn and anti isomers” value in data set [2] (cyclic voltammetry, syn versus anti) is on record as “identical E values for both isomers”. For the same compound, the “reduction potential versus quinone” value in data set [2] (iminoquinone compared with quinone analogue) is on record as “much higher reduction potentials”. The entries for the “K for syn/anti isomerization” value in data set [5] (overall) and in data set [5] (product study) were ~ 1 and 0.7, respectively. Besides, the “hydrolytic stability much below pH 6 / in acid” value in [6] (acid, much below pH 6) is recorded as “rapidly hydrolyses; also recorded: rapidly hydrolyzed”. Further, the “hydrolytic stability below pH 6” value in [6] is on record as “extremely slow”. In addition, in [6] (setting [12]), the “k(acetate)” value worked out at 0.0045 M⁻¹ s⁻¹. For the same compound, the “k(dibasic phosphate)” value in [6] (setting [12]) worked out at 0.000171 M⁻¹ s⁻¹. In addition, the “k(monobasic phosphate)” value in data set [6] (setting [12]) is 0.000421 M⁻¹ s⁻¹. In addition, the “kga for acetic acid” value in data set [6] (general acid catalyzed hydrolysis, pH 3.5 to 6) turned out to be 0.003 M⁻¹ s⁻¹. The compound further came in with a k3/Ka5 in [6] (hydrolysis of diprotonated 2a, fit of equation 1, 30° C.) of 0.045 M⁻¹ s⁻¹. Besides, the “k2 (rate of water addition to 2aH^+)” value in data set [6] (hydrolysis of monoprotonated 2a, 30° C.) amounted to 0.048 s⁻¹. The “hydrolytic stability at pH values ≥7” value in data set [6] (pH ≥7) was “hydrolytically stable”. In data set [6] (pH=7.0, worked out from pKa and k2), the “hydrolysis rate at pH 7.0” value is on record as 1.0×10^-6 s^-1. The “k1 + k-1” value in data set [6] (syn/anti equilibration, lyate term, above pH 7, 30° C.) came out at 1.03e-05 s⁻¹.
Turning to `CC1=C(N2CC2)C(=O)c2nc3n(c2C1=O)CCC3OC(N)=O` (centres unmarked) [1d, 6-N-Aziridinyl-7-methyl-2,3-dihydro-1H-pyrrolo [1,2-a]benzimidazole-5,8-dione-3-Carbamate], the antitumor activity result (in data set [7]; with fresh human colon tumors; in data set [8]; in data set [9]) was “potent antitumor agents” each time.
In the case of `CC(=O)NC1=C(C)C(=O)c2c(nc3n2CCC3OC(C)=O)C1=N` (racemic) [2b, syn/anti 6-Acetamido-5-imino-7-methyl-2,3-dihydro-1H-pyrrolo[1,2-a]benzimidazol-8-one-3-Acetate], the “hydrolytic stability below pH 6” value in [6] is recorded as “extremely slow”.
`CC(=O)OC1CCn2c1nc1c2C(=O)C(C)=C(N2CC2)C1=O` (centres unmarked) [1c, 6-(N-aziridinyl)-7-methyl-2,3-dihydro-1H-pyrrolo [1,2-a]benzimidazole 5,8-dione-3-Acetate]: the antitumor activity entry (in [7]; with fresh human colon tumors; in data set [8]; in [9]) was “potent antitumor agents” throughout.

These data come from patent publication US5015742A, “Synthesis and elucidation of azamitosene and iminoazamitosene” (Arizona Board of Regents, priority 1990, dated 1991).
